According to US20110190249A1, “THERAPEUTIC METHODS AND USES OF SAPOGENINS AND THEIR DERIVATIVES” (PHYTOPHARM PLC, priority 2002, published 2011):

Assays:
m3 receptor = m3 receptor density in CHO-β2/m3 co-transfected cell line; format: cell-based; details: day 5
Excerpt: (§1) The effects of epismilagenin cathylate, sarsasapogenin cathylate, episarsasapogenin cathylate, episarsasapogenin succinate, epismilagenin acetate and sarsasapogenin on the expression of muscarinic acetylcholine receptor (m) in CHO cells or β2 and m3 receptors in CHO cells transfected with either a vector for the m receptor or co-transfected with the vector for β2 and m3 receptors were investigated.
(§2) The results are illustrated in Table 1 below and in FIG. 1 of the drawings. Over the culturing period of CHO cells transfected with a vector for the m receptor, treatment with epismilagenin cathylate, sarsasapogenin cathylate, episarsasapogenin cathylate, episarsasapogenin succinate and sarsasapogenin each prevents the decrease in m receptor number.

β2 adrenoceptor = β2 adrenoceptor density in CHO-β2/m3 co-transfected cell line; format: cell-based; details: day 5
Excerpt: as §1, §2

SMILES: CC(=O)OC1CCC2(C)C(CCC3C2CCC2(C)C3CC3OC4(CCC(C)CO4)C(C)C32)C1 (centres unmarked) [epismilagenin acetate]
- density of m3 receptors (m3 receptor): did not significantly alter
- decrease in β2 adrenoceptors (density) (β2 adrenoceptor): significantly prevented the decrease
